# Reference: patent US12496460B2, “System and method for quantitative dosimetry of photodynamic therapy in skin” (Trustees of Dartmouth College, priority 2020, dated 2025)
# Key:
# [1] = tested on: PpIX accumulation in athymic nude mice; conditions: mouse, in vivo
# Description: Example 1—Preclinical In-vivo Murine Measurements: The nude mouse model was used to examine the system's 100 ability to capture in-vivo production of PpIX. The measurements were performed on five athymic nude mice fed a low-chlorophyll diet to minimize tissue autofluorescence. For imaging, the mice were placed under anesthesia and onto a heated pad to regulate their body temperature; the temperature was monitored using an IR camera (TG165, FLIR Systems Inc.) and kept in the 32° C.-36° C. range. AMELUZ® (Biofontera Inc., Boston, MA), a 10% aminolevulinic acid hydrochloride gel, was topically applied to the backs of the mice as to contain an ALA-applied area and a control area within the field-of-view of the system 100. The mice were kept in a low-light environment to prevent photobleaching of the accumulated PpIX. Images of the mice were taken at 10-minute intervals for the first hour with subsequent images at two and three hours of incubation. The mice were kept under anesthesia during the first hour, placed back in the cage, and briefly placed back under anesthesia for imaging at two and three hours of incubation. The imaging parameters used for these measurements were iOS-generated images with ISO 400 and exposure set to 1/10th sec. The images were processed in ImageJ, where the red pixels were isolated for region-of-interest (ROI) pixel intensity calculation.
# In this murine model, it was possible to quantitatively observe the PpIX accumulation in the ALA-applied area as early as 10 minutes with a clear visual accumulation in the 20-30 minute timeframe. In contrast, the control region was relatively flat for the first hour with a moderate increase in fluorescence observed at the two hour and three hour measurements as the mice begin systematic accumulation of the PpIX.
# [2] = tested on: PpIX fluorescence at AK treatment sites; conditions: human, in vivo
# Description: Example 2—Human Skin Test Measurement: In this human testing, the system's 100 performance was evaluated on three patients undergoing their standard clinical PDT treatment at the Dartmouth-Hitchcock Dermatology Department for treatment of AKs using Levulan® (Sun Pharma Industries Ltd., Mumbai, India), a 20% ALA solution [see FIG. 2A]. […] The standard procedure involves treatment of a site (e.g. face, scalp, arms, or legs) which is cleaned using ethanol and followed by non-occluded topical application of the ALA; the patient is then transferred to a low-light rest area for a 60-minute incubation period. […] Fluorescence images from a treatment site are gathered before the ALA is applied, at the 60-minute incubation, and post-PDT treatment [see FIG. 2B]. Discomfort levels experienced by the imaged patients were recorded during light irradiation via verbal rating of the pain. The goal of performing dosimeter imaging using the system 100 during treatment is to correlate the measured PpIX accumulation and PDT-induced photobleaching to patient outcomes and generate thresholds that can be used for individualized treatment guidance [see FIG. 2C]. […] Images were pre-processed using Adobe DNG Converter software and analyzed using MATLAB and ImageJ to extract the RAW pixel values. […]
structure (smiles),measurement,setting,value
"NCC(=O)CCC(=O)O [ALA, aminolevulinic acid]",time at which PpIX accumulation is quantitatively observed in the ALA-applied area,[1]; athymic nude,10 min
same,timeframe of clear visual PpIX accumulation,[1]; athymic nude,20 to 30 min
same,course of PpIX fluorescence over the three hours of incubation,[1],monotonic increase
same,average pixel value (PpIX fluorescence) at 60 min incubation,[2],21.1±6.1
